In experiment [1] the target is T1, TYK2-JH2 (aa 575-869, in-house) protein (Homo sapiens, UniProt P29597).
T1 construct: TYK2-JH2 (aa 575-869, in-house) protein; made in house
Briefly: TYK2-JH2 biochemical assay (HTRF probe displacement). In kind it is binding. As to conditions: Biochemical assay; read-out: TYK2-JH2 IC50. An outline of the steps: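 HTRF probe-displacement format: compound dilutions (10 points, 5-fold, from 500 uM in DMSO at 500×) were combined with 0.2 nM TYK2-JH2 protein for 0.5 h at room temperature in HEPES pH 7.5 buffer with MgCl2, BSA, DTT and Brij-35. Percent inhibition came from the 615/665 nm fluorescence ratio, fitted to a four-parameter logistic for IC50.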

Experiment [2] deals with JAK2, TYK2/p-STAT4 (Tyr693) activated by IL-12 in NK-92 cell line. Briefly: IL-12-JAK2, TYK2/p-STAT4 (Tyr693) inhibition IC50 cellular assay. Particulars: for IC50: NK92, Cellular assay, read-out: pSTAT4/IL-12 IC50; for Selectivity fold (TYK2/JAK2): Cellular assay, pSTAT5/GM-CSF IC50 vs pSTAT4/IL-12 IC50. It counts as cell-based. The text has this: Assay C: IL-12-JAK2, TYK2/p-STAT4 (Tyr693) Inhibition IC50 Cellular Assay
To evaluate the inhibition effect of compounds disclosed herein on JAK2, TYK2/p-STAT4 (Tyr693) activated by IL-12 in NK-92 cell line, NK-92 cells were collected and washed 3 times by DPBS and resuspended in MEM-α (GIBCO, Cat #12561056) with 10% FBS (Gibco, Cat #10099, Lot #1891605), without IL-2 (R&D systems, Cat #202-IL), starved overnight. Cells were collected and resuspended in 1640 medium (phenol red free, Gibco, Cat #11835-030) with 0.1% BSA, and 12.5 μl/5×10^4/well cell suspension were seeded to the 96-well plate (Corning, Cat #3799). Then cells were treated with compounds diluted in 0.2% DMSO 1640 medium, at 37° C., 1 h. Dilution is done according to the following protocol: (1) make 500× compounds solution in DMSO from 5 mM by 4-fold dilution, total 8 doses were included; (3) make 2× compounds solution in assay medium by transferring 0.5 μl serial 500× stock solution into 125 μl assay medium; (4) 15 μl of 2× serial solution is added to cells and incubate at 37° C. for 1 h, the final compound conc. is 10000, 2500, 625, 156.25, 39, 9.8, 2.4 and 0.61 nM, respectively. After 1 h, cells were treated with 2.5 μl medium containing IL-12 at 37° C. (R&D systems, Cat #219-IL-005, final conc. 40 ng/ml), 30 min. Following cells were lysed with 7.5 μl lysis buffer at RT, shaking on shaker for 1 h. 10 μL of cell lysate were transferred to a PE 384-well Proxiplate detection plate, and 5 μL of pre-mixed Alphascreen beads were added to each well. Covered the plate with a plate sealer, span 1000 rpm for 1 min, mix, Incubated overnight at room temperature. Read on BMG PheraStar with Alphascreen protocol. IC 50 values were calculated by fitting dependent data to the four-parameter logistic model using dotmatics software. The assay was performed by using AlphaLISA SureFire Ultra p-STAT4 (Tyr693) Assay Kit—High Volume (PE, Cat #ALSU-PST4-A-HV).

The next experiment has as its system pSTAT5/GM-CSF. Briefly: pSTAT5/GM-CSF cellular assay (JAK2 selectivity). It counts as cell-based. Particulars: for Selectivity fold (TYK2/JAK2): pSTAT5/GM-CSF IC50 over pSTAT4/IL-12 IC50.

Where only a bound is given, the exact number is not on record here.

T1 sequence (P29597 575-869): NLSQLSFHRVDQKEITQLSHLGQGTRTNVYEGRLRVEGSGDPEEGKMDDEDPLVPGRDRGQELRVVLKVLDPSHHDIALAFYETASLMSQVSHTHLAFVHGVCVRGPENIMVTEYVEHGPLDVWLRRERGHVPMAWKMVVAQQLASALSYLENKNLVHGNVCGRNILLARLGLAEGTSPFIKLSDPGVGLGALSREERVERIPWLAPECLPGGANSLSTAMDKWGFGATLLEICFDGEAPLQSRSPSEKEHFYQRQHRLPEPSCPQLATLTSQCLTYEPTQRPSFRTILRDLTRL

For `COCC1CCN(c2cc(Nc3cc(NC(C)=O)ncc3-c3ccc4c(n3)OCC(C)(C)O4)nc(S(C)(=O)=O)c2)C1` (stereo not shown) [Example Q73, N-(5-(2,2-dimethyl-2,3-dihydro-[1,4]dioxino[2,3-b]pyridin-6-yl)-4-((4-(3-(methoxymethyl)pyrrolidin-1-yl)-6-(methylsulfonyl)pyridin-2-yl)amino)pyridin-2-yl)acetamide], the IC50 in experiment [1] stood at 0.025 nM; in experiment [2], 2.84 nM; in the experiment with pSTAT5/GM-CSF it was 2350 nM. In addition, the “Selectivity fold (TYK2/JAK2)” value with pSTAT5/GM-CSF was 828 fold.
`CC(=O)Nc1cc(Nc2cc(OCC3CC3)cc(S(C)(=O)=O)n2)c(-c2ccn(C)n2)cn1` [Example J3, N-(4-((4-(cyclopropylmethoxy)-6-(methylsulfonyl)pyridin-2-yl)amino)-5-(1-methyl-1H-pyrazol-3-yl)pyridin-2-yl)acetamide]: the IC50 in experiment [1] was 0.026 nM; in experiment [2], 0.286 nM; in the experiment on pSTAT5/GM-CSF, > 10000 nM. Besides, the “Selectivity fold (TYK2/JAK2)” value in the experiment with pSTAT5/GM-CSF is given as >34965 fold.
`CO[C@@H]1CCCN(c2cc(Nc3cc(NC(C)=O)ncc3-c3ccc4c(n3)OCC(C)(C)O4)nc(S(C)(=O)=O)c2)C1` [Example Q66, (R)-N-(5-(2,2-dimethyl-2,3-dihydro-[1,4]dioxino[2,3-b]pyridin-6-yl)-4-((4-(3-methoxypiperidin-1-yl)-6-(methylsulfonyl)pyridin-2-yl)amino)pyridin-2-yl)acetamide]: the IC50 amounted to 0.029 nM in experiment [1], 0.792 nM in experiment [2] and 3050 nM in the experiment on pSTAT5/GM-CSF. The “Selectivity fold (TYK2/JAK2)” value in the experiment with pSTAT5/GM-CSF was 3845 fold.
As to `CC(=O)Nc1cc(Nc2cc(C(F)(F)F)cc(S(C)(=O)=O)n2)c(-c2ccn(C)n2)cn1` [Example J52, N-(5-(1-methyl-1H-pyrazol-3-yl)-4-((6-(methylsulfonyl)-4-(trifluoromethyl)pyridin-2-yl)amino)pyridin-2-yl)acetamide], the IC50 in experiment [1] is 0.021 nM; in experiment [2], 1.43 nM; with pSTAT5/GM-CSF, > 10000 nM. Moreover, in the experiment with pSTAT5/GM-CSF, the “Selectivity fold (TYK2/JAK2)” value was >699 fold.
For `CC(=O)Nc1cc(Nc2cc(C(F)F)cc(S(C)(=O)=O)c2)c(-c2ccn(C)n2)cn1` [Example J32, N-(4-((3-(difluoromethyl)-5-(methylsulfonyl)phenyl)amino)-5-(1-methyl-1H-pyrazol-3-yl)pyridin-2-yl)acetamide], the IC50 in experiment [1] was 0.079 nM; in experiment [2], 8.79 nM; with pSTAT5/GM-CSF, > 10000 nM. In the experiment with pSTAT5/GM-CSF, the “Selectivity fold (TYK2/JAK2)” value is >1137 fold.
With `COCc1cc(Nc2cc(NC(C)=O)ncc2-c2ccc(C(C)(C)O)cn2)nc(S(C)(=O)=O)c1` [Example H13, N-(5-(2-hydroxypropan-2-yl)-4′-((4-(methoxymethyl)-6-(methylsulfonyl)pyridin-2-yl)amino)-[2,3′-bipyridin]-6′-yl)acetamide], the IC50 in experiment [1] is 0.042 nM; in experiment [2], 0.676 nM; in the experiment on pSTAT5/GM-CSF, 4080 nM. The “Selectivity fold (TYK2/JAK2)” value in experiment [2] stood at 6028 fold.
Regarding `COCCOc1cc(Nc2cc(NC(C)=O)ncc2-c2ccn(C(C)C)n2)nc(S(C)(=O)=O)c1` [Example M24, N-(5-(1-isopropyl-1H-pyrazol-3-yl)-4-((4-(2-methoxyethoxy)-6-(methylsulfonyl)pyridin-2-yl)amino)pyridin-2-yl)acetamide], the IC50 in experiment [1] was 0.032 nM; in experiment [2], 0.487 nM; in the experiment with pSTAT5/GM-CSF, 2180 nM. The “Selectivity fold (TYK2/JAK2)” value in the experiment with pSTAT5/GM-CSF is recorded as 4466 fold.
Take `CC(=O)Nc1cc(Nc2cccc(S(C)(=O)=O)n2)c(-c2cc(Cl)c(C(C)(C)O)cn2)cn1` [Example B17, N-(4-chloro-5-(2-hydroxypropan-2-yl)-4′-((6-(methylsulfonyl)pyridin-2-yl)amino)-[2,3′-bipyridin]-6′-yl)acetamide]: the IC50 was 0.035 nM in experiment [1], 2.05 nM in experiment [2] and > 10000 nM in the experiment with pSTAT5/GM-CSF. Also, in experiment [2], the “Selectivity fold (TYK2/JAK2)” value is recorded as >4878 fold.
For `COCc1ccc(-c2cnc(NC(C)=O)cc2Nc2cc(OC(C)C)cc(S(C)(=O)=O)n2)nc1` [Example E4, N-(4′-((4-isopropoxy-6-(methylsulfonyl)pyridin-2-yl)amino)-5-(methoxymethyl)-[2,3′-bipyridin]-6′-yl)acetamide], the IC50 in experiment [1] is 0.022 nM; in experiment [2], 0.536 nM; with pSTAT5/GM-CSF, > 10000 nM. For the same compound, the “Selectivity fold (TYK2/JAK2)” value in experiment [2] is >18656 fold.
With `CCn1ccc(-c2cnc(NC(C)=O)cc2Nc2cc(OC)cc(S(C)(=O)=O)c2)n1` [Example M9, N-(5-(1-ethyl-1H-pyrazol-3-yl)-4-((3-methoxy-5-(methylsulfonyl)phenyl)amino)pyridin-2-yl)acetamide], the IC50 in experiment [1] is 0.035 nM; in experiment [2], 7.06 nM; with pSTAT5/GM-CSF, > 10000 nM. Also, the “Selectivity fold (TYK2/JAK2)” value in the experiment on pSTAT5/GM-CSF is >1416 fold.
As to `COCc1ccc(-c2cnc(NC(C)=O)cc2Nc2cc(OCCO)cc(S(C)(=O)=O)n2)nc1` [Example E6, N-(4′-((4-(2-hydroxyethoxy)-6-(methylsulfonyl)pyridin-2-yl)amino)-5-(methoxymethyl)-[2,3′-bipyridin]-6′-yl)acetamide], the IC50 was 0.029 nM in experiment [1], 2.72 nM in experiment [2] and > 10000 nM in the experiment on pSTAT5/GM-CSF. Also, in experiment [2], the “Selectivity fold (TYK2/JAK2)” value is reported as >3676 fold.
With `CC(=O)Nc1cc(Nc2cc(OC(C)C)cc(S(C)(=O)=O)n2)c(-c2cc3n(n2)CCOC3)cn1` [Example Q6, N-(5-(6,7-dihydro-4H-pyrazolo[5,1-c][1,4]oxazin-2-yl)-4-((4-isopropoxy-6-(methylsulfonyl)pyridin-2-yl)amino)pyridin-2-yl)acetamide], the IC50 in experiment [1] is 0.028 nM; in experiment [2], 0.45 nM; in the experiment on pSTAT5/GM-CSF, > 10000 nM. In addition, in the experiment on pSTAT5/GM-CSF, the “Selectivity fold (TYK2/JAK2)” value is listed as >22222 fold.
`CC(=O)Nc1cc(Nc2cc(N3CCOC[C@@H]3C)cc(S(C)(=O)=O)n2)c(-c2ccc3c(n2)OCC(C)(C)O3)cn1` [Example Q35, (S)—N-(5-(2,2-dimethyl-2,3-dihydro-[1,4]dioxino[2,3-b]pyridin-6-yl)-4-((4-(3-methyl-morpholino)-6-(methylsulfonyl)pyridin-2-yl)amino)-pyridin-2-yl)acetamide]: the IC50 in experiment [1] was 0.02 nM; in experiment [2], 0.679 nM; in the experiment on pSTAT5/GM-CSF, 1810 nM. The “Selectivity fold (TYK2/JAK2)” value with pSTAT5/GM-CSF came to 2665 fold.
As for `CC(=O)Nc1cc(Nc2cc(OC3COC3)cc(S(C)(=O)=O)n2)c(-c2ccc(C(C)(C)O)cn2)cn1` [Example H27, N-(5-(2-hydroxypropan-2-yl)-4′-((6-(methylsulfonyl)-4-(oxetan-3-yloxy)pyridin-2-yl)amino)-[2,3′-bipyridin]-6′-yl)acetamide], the IC50 is 0.031 nM in experiment [1], 2.72 nM in experiment [2] and > 10000 nM with pSTAT5/GM-CSF. Moreover, the “Selectivity fold (TYK2/JAK2)” value in experiment [2] is reported as >3676 fold.
As for `CCS(=O)(=O)c1cc(OC(C)C)cc(Nc2cc(NC(C)=O)ncc2-c2ccc(C(C)(C)O)cn2)n1` [Example H36, N-(4′-((6-(ethylsulfonyl)-4-isopropoxypyridin-2-yl)amino)-5-(2-hydroxypropan-2-yl)-[2,3′-bipyridin]-6′-yl)acetamide], the values for the IC50 (in experiment [1]; in experiment [2]; in the experiment on pSTAT5/GM-CSF) were 0.022 nM, 1.95 nM and > 10000 nM, respectively. In experiment [2], the “Selectivity fold (TYK2/JAK2)” value is recorded as >5128 fold.
In the case of `CC(=O)Nc1cc(Nc2cccc(S(C)(=O)=O)n2)c(-c2ccn(C)n2)cn1` [Example J11, N-(5-(1-methyl-1H-pyrazol-3-yl)-4-((6-(methylsulfonyl)pyridin-2-yl)amino)pyridin-2-yl)actamide], the IC50 in experiment [1] was determined as 0.017 nM; in experiment [2], 0.275 nM; with pSTAT5/GM-CSF, 6420 nM. Moreover, the “Selectivity fold (TYK2/JAK2)” value in the experiment with pSTAT5/GM-CSF worked out at 23327 fold.

The record behind these values is patent US20240043435A1, “TYK-2 INHIBITOR” (BEIGENE, LTD., priority 2020, published 2024).
